Data published in patent US4735963A, “Anti-platelet aggregating 1,3-oxathiane derivatives, compositions, and method of use therefor” (Imperial Chemical Industries PLC, priority 1985, dated 1988).

Test system: TXA2
Test: rabbit aortal strip model, test (a)
Type: cell-based
Conditions: agonist TXA2 or U46619
Description: (a) The rabbit aortal strip model devised by Piper and Vane (Nature, 1969, 223, 29-35) using as agonist a freshly prepared sample of TXA2, generated by addition of arachidonic acid (25 μg) to citrated, platelet rich rabbit plasma (250 μl) and allowing the mixture to aggregate fully over 90 seconds before use; alternatively the TXA2 mimetic agent known as U46619 (described by R L Jones et alia, in "Chemistry, Biochemistry and Pharmacological Activity of Prostanoids" edited by S M Roberts and F Scheinmann, at page 211, Pergamon Press, 1979) may be used as the agonist;

CC1(C)O[C@@H](c2ccccc2O)[C@@H](C/C=C\CCCC(=O)O)CS1 (relative stereo) [Example 1, 5(Z)-7-(6-o-hydroxyphenyl-2,2-dimethyl-1,3-oxathian-cis-5-yl)heptenoic acid]
pA2 in test (a): 7.42
